Holding throughout (assay): growth of human tumour cells (NCI), 48 h
The test system of experiment [1] is IGROV1 ovarian.
The subject of experiment [2] is HL-60(TB) leukemia.
For experiment [3], the system named is HT29 colon.
Experiment [4] relates to UACC-62 melanoma.
The test system of experiment [5] is SW-620 colon.
In experiment [6] the test system is NCI-H460 lung.
Experiment [7] concerns OVCAR-4 ovarian.
Experiment [8] has as its system MCF7 breast.
For experiment [9], the system named is NCI/ADR-RES ovarian.

Molecules are shown by their SMILES. Values joined by “and” are separate entries in the source; they are usually repeats but may differ in a detail not shown here. Identical values can stand only once.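 Results reflect a 48-hour exposure of cells in 96-well plates to compound at five concentrations. GI50 marks 50% less growth. The concentration for full growth arrest is given as TGI.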 A value given as a limit tells only on which side of the number the result lay.

As for `Cc1cc(Cl)ccc1N=C1NC(=O)C(CC(=O)Nc2cccc(Cl)c2)S1` (centres undefined), the TGI in [1], in experiment [2], in [3], in experiment [4], in experiment [5] and in experiment [6] was greater than 100 µM in each case. Also, the TGI in experiment [7] was greater than 100 µM.

`CC[C@H](C)[C@H](NC(=O)[C@H]1CCCCN1C)C(=O)N(C)[C@H](CCc1nc(C(=O)N[C@@H](Cc2ccccc2)C[C@H](C)C(=O)O)cs1)C(C)C`: the GI50 in [1] is 0.223 µM; in experiment [2], 0.0553 µM; in [3], 0.123 µM; in experiment [8] it was 0.0271 µM; in [4], 0.0861 µM; in experiment [5], 0.124 µM. The GI50 is 0.164 µM in [6], 1.94 µM in experiment [7] and greater than 25 µM in experiment [9]. Further, the TGI in [1] was greater than 25 µM; in [2] it was 0.174 µM; in experiment [3], greater than 25 µM; in experiment [8], greater than 25 µM; in experiment [4], greater than 25 µM; in experiment [5], greater than 25 µM. The TGI in [6], in [7] and in [9] was greater than 25 µM throughout.

On to `COc1cc2c(c(OC)c1OC)-c1cc(I)c(O)cc1[C@@H](NC(C)=O)CC2`, for which the GI50 was 0.137 µM in experiment [1]; 0.0254 µM in experiment [2]; 0.036 µM in [3]; 0.0336 µM in experiment [8]; 0.0448 µM in [4]; 0.039 µM in experiment [5]. Moreover, the values for the GI50 in [6], in experiment [7] and in [9] were 0.0356 µM, 0.105 µM and 0.681 µM, respectively. For the same compound, the TGI in experiment [1] was greater than 31.6 µM; in experiment [2] it was 0.069 µM; in experiment [3], 10.7 µM; in [8], greater than 100 µM; in experiment [4] it was greater than 100 µM; in experiment [5], greater than 100 µM. Also, the values for the TGI in experiment [6], in [7] and in experiment [9] were 4.99 µM, greater than 100 µM and greater than 20.3 µM, respectively.

On to `O=P(CN1CCOCC1)(c1ccccc1)c1ccccc1`, for which the TGI in experiment [1], in experiment [2], in experiment [3], in experiment [4], in experiment [5] and in experiment [6] was greater than 100 µM in each case. Also, the TGI in [7] was greater than 100 µM.

Regarding `COC(=O)CC1(O)C(=O)OCc2c1cc1n(c2=O)Cc2c-1nc1ccccc1c2OC` (centres undefined), the TGI in experiment [1] is greater than 74.3 µM; in experiment [2] it was 0.778 µM; in experiment [3], greater than 100 µM; in [4], 2.29 µM; in [5] it was greater than 100 µM; in [7], greater than 36.1 µM.

With `CCc1ccc2c(c1)C(=O)c1c-2n(CCCN)c(=O)c2cc(OC)c(OC)cc12`, the GI50 was 1.76 µM in experiment [1]; 1.37 µM in experiment [2]; 1.56 µM in [3]; 1.58 µM in experiment [8]; 1.8 µM in experiment [4]; 1.72 µM in experiment [5]. The values for the GI50 in [6], in [7] and in [9] were 1.85 µM, 1.74 µM and 1.68 µM, respectively. For the same compound, the TGI in experiment [1] worked out at 3.36 µM; in experiment [2], 3.47 µM; in [3], 2.98 µM; in experiment [8], 3.43 µM; in experiment [4], 3.32 µM; in [5] it was 3.33 µM. The TGI in [6] amounted to 3.86 µM; in experiment [7], 3.2 µM; in experiment [9], 3.22 µM.

Turning to `O=C1/C(=C/c2ccc(Cl)cc2)CCC1CNc1ccc(Cl)cc1` (centres undefined), the TGI was 27.3 µM in [1]; 22.1 µM in [2]; 41.1 µM in experiment [3]; 10.8 µM in experiment [8]; 7.29 µM in experiment [4]; 11.4 µM in [5]. For the same compound, the TGI in experiment [6] was greater than 100 µM; in [7] it was 54.5 µM; in experiment [9] it was 67.1 µM.

Regarding `COc1ccc(/C=C/C(=O)c2c(-c3ccccc3)nn(C)c(=O)c2N2CC2C)cc1` (centres undefined), the TGI was greater than 100 µM in experiment [1]; 60.2 µM in experiment [2]; greater than 100 µM in [3]; 71.2 µM in [4]; 88.2 µM in [5]; 65.5 µM in experiment [6]. Moreover, in [7], the TGI turned out to be 84 µM.

Take `COC(=O)c1c(C(=O)OC)c(-c2ccccc2)n(-c2ccccc2)c(=O)c1-c1ccccc1`: the TGI in [1], in [2], in experiment [3], in experiment [4], in [5] and in experiment [6] was greater than 100 µM each time. This compound registered a TGI in experiment [7] of 78.1 µM.

With `COc1cc(C(=O)c2cnc(-c3c[nH]c4cccc(C)c34)[nH]2)cc(OC)c1OC`, the GI50 in [1] is 0.00842 µM and 0.0168 µM; in experiment [3] it was 0.00643 µM; in [8], 0.00344 µM; in [4] it was 0.0044 µM; in experiment [5] it was 0.00416 µM; in experiment [6], 0.00618 µM. Besides, the GI50 in [7] was 0.529 µM; in [9], 0.0123 µM. In addition, the TGI was greater than 100 µM in experiment [1]; greater than 100 µM in [8]; greater than 100 µM in experiment [4]; greater than 100 µM in experiment [5]; 35.4 µM in experiment [6]; greater than 100 µM in [7].

Turning to `CC(C)c1ccc(O)c(Cc2cc(C(C)C)cc(Cc3cc(C(C)C)ccc3O)c2O)c1`, the TGI in experiment [1] came to 6.54 µM; in [2], 4.36 µM; in experiment [3] it was 4.28 µM; in [4], 8.48 µM; in experiment [5], 3.09 µM; in experiment [6] it was 3.45 µM. The TGI in [7] came to 2.68 µM.

Regarding `CCCN1C(=O)/C(=C/c2ccc(SC(F)(F)F)cc2)SC1=Nc1ccc(OC)cc1`, the GI50 in [1] is 29.6 µM; in experiment [2] it was greater than 50 µM; in experiment [3] it was 17.6 µM; in experiment [8] it was 15.6 µM; in experiment [4], 10 µM; in experiment [5], 38.6 µM. The GI50 in experiment [6] is 12.1 µM; in [9] it was 11 µM. The TGI in [1] is greater than 50 µM; in [2], greater than 50 µM; in experiment [3], greater than 50 µM; in experiment [8], greater than 50 µM; in [4] it was 25.4 µM; in experiment [5], greater than 50 µM. The values for the TGI in [6] and in experiment [9] were greater than 50 µM and 42.4 µM, respectively.

(Values after PubChem BioAssay (NCI).)
